PubChem BioAssay (NCI)
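Grown in 96-well plates, cells were treated for 48 hours with each compound at five concentrations. Insufficient inhibition: endpoint recorded as highest concentration tested. TGI marks complete inhibition of growth.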

Experiments:
Test in all cases: NCI-60 cell line screen, 48 h
HT29 colon = tested on: HT29 colon
SF-268 CNS = tested on: SF-268 CNS
786-0 renal = tested on: 786-0 renal
HCT-116 colon = tested on: HCT-116 colon
PC-3 prostate = tested on: PC-3 prostate
SNB-19 CNS = tested on: SNB-19 CNS
SW-620 colon = tested on: SW-620 colon
ACHN renal = tested on: ACHN renal
HS 578T breast = tested on: HS 578T breast
LOX IMVI melanoma = tested on: LOX IMVI melanoma
RXF 393 renal = tested on: RXF 393 renal
OVCAR-5 ovarian = tested on: OVCAR-5 ovarian
KM12 colon = tested on: KM12 colon
SK-MEL-28 melanoma = tested on: SK-MEL-28 melanoma
OVCAR-8 ovarian = tested on: OVCAR-8 ovarian
NCI/ADR-RES ovarian = tested on: NCI/ADR-RES ovarian
A549 NSCLC = tested on: A549 NSCLC
SK-MEL-5 melanoma = tested on: SK-MEL-5 melanoma
UO-31 renal = tested on: UO-31 renal
A498 renal = tested on: A498 renal

Structure (SMILES) | TGI (HT29 colon) [µM] | TGI (SF-268 CNS) [µM] | TGI (786-0 renal) [µM] | TGI (HCT-116 colon) [µM] | TGI (PC-3 prostate) [µM] | TGI (SNB-19 CNS) [µM] | TGI (SW-620 colon) [µM] | TGI (ACHN renal) [µM] | TGI (HS 578T breast) [µM] | TGI (LOX IMVI melanoma) [µM] | TGI (RXF 393 renal) [µM] | TGI (OVCAR-5 ovarian) [µM] | TGI (KM12 colon) [µM] | TGI (SK-MEL-28 melanoma) [µM] | TGI (OVCAR-8 ovarian) [µM] | TGI (NCI/ADR-RES ovarian) [µM] | TGI (A549 NSCLC) [µM] | TGI (SK-MEL-5 melanoma) [µM] | TGI (UO-31 renal) [µM] | TGI (A498 renal) [µM]
Fc1cccc(Cl)c1C1SCc2nc3cc4ccccc4cc3n21 (stereo unspecified) | > 100 | > 100 | > 100 | > 100 | > 100 | > 100 | > 100 | > 100 | > 100 | > 100 | > 100 | > 100 | > 100 | > 100 | > 100 | > 100 | > 100 |  |  | 
O=c1[nH]nc(Cn2c3ccc(Br)cc3c3nc4ccccc4nc32)n1C1CCCCC1 | > 100 | > 100 | > 100 | > 100 | 59.8 | > 100 | > 100 | > 100 |  | > 100 | > 100 | > 100 | > 100 | 59.2 | > 100 | > 100 | > 100 | > 100 | > 100 | 57.4
COc1ccc(/C=C/C(=O)CC(=O)/C=C/c2ccc(OC)cc2)cc1 | > 100 | > 100 | 89.1 | 34.5 | > 100 | > 100 | > 100 |  | 99.8 | 25.1 | 80 | > 100 | > 100 | > 100 | 52.7 | > 100 | > 100 | > 100 | > 100 | 
CCCCCCCCCCCCOc1ccc(/C=C/C2=[N+](CCCl)CCO2)cc1 | > 100 |  | 42.7 | 33.5 | > 100 | > 100 | > 100 | > 100 | > 100 | 39.9 |  | > 100 | > 100 | > 100 | > 100 | > 100 | > 100 | > 100 | > 100 | > 100
O=c1c2cc(Cl)ccc2[nH]c2cc(O)cc(O)c12 | > 10 | > 10 | > 10 | > 10 | > 10 | > 10 | > 10 | > 10 | > 10 |  | > 10 | > 10 | > 10 | > 10 | > 10 | > 10 | > 10 | > 10 |  | > 10
O=C(O)CNn1c(SCC(=O)O)nnc(/C=C/c2c(O)ccc3ccccc23)c1=O | > 100 | 97.3 | > 100 | > 100 | > 100 | > 100 | > 100 | > 100 | 94.4 | 31.8 |  | > 100 | > 100 | > 100 | 28.6 | 67.9 | > 100 | 42.8 | > 100 | > 100
O=C(N/N=C/c1ccccc1O)c1ccccc1Nc1ccccc1C(=O)N/N=C/c1ccccc1O | 4.99 | 2.28 | > 24.2 | 3.5 | > 100 | > 100 | > 100 | > 100 |  | > 100 | > 100 | > 100 | > 100 | 0.865 | 11.7 | 5.44 | > 100 | 8.15 | > 100 | > 100
Cc1nn2c(C(=O)N/N=C/c3ccc([N+](=O)[O-])cc3)c(C)nc2s1 | > 100 | > 100 | > 100 | > 100 |  | > 100 | > 100 | > 100 | > 100 | > 100 | > 100 | > 100 | > 100 | > 100 | > 100 | > 100 | > 100 | > 100 | > 100 | > 100
CC(C)(C)OC/C=C1\C(=O)O[C@H]2C[C@@H](O[Si](C)(C)C(C)(C)C)C[C@@H]12 | > 100 | > 100 | > 100 | > 100 | > 100 | > 100 | > 100 | > 100 |  | > 100 | > 100 | > 100 | > 100 | > 100 | > 100 | > 100 | > 100 | > 100 | > 100 | > 100
CCOC(=O)c1nc2ccccc2nc1Oc1cc(OC)c(OC)c(OC)c1 | > 100 | > 100 | > 100 | > 100 | > 100 | > 100 | > 100 | > 100 | > 100 | > 100 |  | > 100 | > 100 | > 100 | > 100 | > 100 | > 100 | > 100 | > 100 | > 100
O=[N+]([O-])C(=C1Nc2ccccc2N1)/C(Cl)=C(/Cl)N1CCOCC1 | > 100 | 62.5 | > 100 | > 100 | > 100 | > 100 | > 100 | > 100 | > 100 |  |  | > 100 | > 100 | > 100 | > 100 | > 100 | > 100 |  | > 100 | > 100
C=C(C)C(O)C(O)C[C@@H](C)C1CC[C@]23C[C@]12CCC1[C@@]2(C)CCC(OC(C)=O)C(C)(C)C2CC(OC2OC(CO)C(O)C(O)C2O)[C@]13C (stereo partly specified) | 33.6 | 33 | 35.1 | 29.5 | 34.7 | 45.1 | 30.8 | > 100 | 39.6 | 32.3 | 29.3 | 45.9 | 31.8 | 37.1 | 37.1 | > 100 | > 100 | 33.1 | > 100 | 
